Reference: patent US12636284B2, “Compositions for use in the prevention and/or treatment of intellectual disability and neurodegenerative diseases in a subject with down syndrome” (UNIVERSITA' DEGLI STUDI DI ROMA “LA SAPIENZA”, priority 2021, dated 2026)

Experiments:
Format in all cases: in vivo, mouse
Ts2Cje mice = assay: Novel object recognition (NOR) cognitive test after intranasal treatment; details: Ts2Cje mice 9 months of age; sitagliptin 5 mM intra-nasally, 10 μL/nostril, once a day for 21 days
Description: Finally, animals were sacrificed using cervical dislocation. […] The Novel object recognition (NOR) test is a relatively fast and efficient means of testing different stages of learning and memory in mice. The test is based on a minimum of three sessions: a habituation session (Day 1), a training session (Day 2) and a test session (Day 3). Training simply involves visual exploration of two identical objects, while the test session involves replacing one of the previously explored objects with a new object. Since rodents have an innate preference for novelty, a rodent that remembers the familiar object will spend more time exploring the new object. […] In the habituation stage, each animal can freely explore the arena for 10 minutes (50 cm deep×30 cm wide×30 cm high) in the absence of objects. During the training stage, a single animal is placed in the arena containing two identical objects (two balls) for 10 min. In the testing stage, after 24 hours, the animal is brought back to the arena with two objects, one is the familiar object and the other is a new object (ball+lego). […] In the analysis stage, the discrimination index (DI) and preference index (PI) are evaluated. The discrimination index (DI) allows calculation of the animal's ability to discriminate between new (TN) and familiar (TF) objects [DI=(TN−TF)/(TN+TF)]. […]

[1] = Glucose tolerance test (GTT) at end of treatment; details: Ts2Cje mice; sitagliptin 5 mM intranasal, 21 days; 6 h fasting, i.p. glucose 10%
Method: Finally, animals were sacrificed using cervical dislocation.
Furthermore, mice were measured at the beginning and at the end of the treatment to evaluate the length in centimeters (cm). For calculating the body mass surface, the DuBois equation was used: body surface area (m^2)=0.007184×weight ([…])×height ([…]). The body mass index was calculated as the ratio between weight and BSA (gr/m^2). At the end of the treatment, the glucose tolerance test (GTT) was carried out on the four experimental groups. After a fasting period of 6 hours, the animals' basal blood glucose was assessed with a small blood sample from the tail (T0). Subsequently, the same animals were treated with a glucose solution (10%, intraperitoneal injection) and blood glucose was measured with a glucometer (lineD ORO, Bioseven) after 30-60-90-120 minutes.

DYRK1A protein = assay: Western blot of DYRK1A protein levels in hippocampus; details: hippocampus of Ts2Cje mice, 21 days intranasal treatment
Method: Finally, animals were sacrificed using cervical dislocation. […] For Western blots, 20 μg of proteins from the hippocampus of mice belonging to the four experimental groups were separated by 4-15% SDS-PAGE CriterionTM […] (Bio-rad, Hercules, CAUSE). […] Therefore, the gel, once the image has been acquired, represents the total of the loaded proteins (Total Load), which will then be used to normalize the specific proteins to be examined. After electrophoresis and gel imaging, proteins are transferred via the semi-dry TransBlot Turbo apparatus (Bio-Rad Laboratories) onto nitrocellulose membranes (Bio-Rad, Hercules, CA, USA). Nitrocellulose membranes are blocked with 3% bovine serum albumin (BSA) in a solution of Tween 20-TBS and incubated overnight at 4° C. using specific primary antibodies: p([…])-GSK3B (1:1000, Santa Cruz, #sc-135653), p(S9)-GSK3β (1:1000, Cell Signaling, #5558S), GSK3β (1:1000 Abcam, #93926) and DYRK1A (1:1000, Cell Signaling, #8765S), MAPK44/42 (1:1000, Cell Signaling, #9102), p[…])-MAPK44/42 (1 1000, Cell Signaling, #9101), Akt (1:2000, Bio-Rad, # vma00253K), p(S473) Akt (1:1000, Cell Signaling, #4060S). After three washes with a T-TBS buffer solution, membranes were incubated for 1 hour at room temperature with the secondary antibodies. […] Finally, the results obtained were analyzed using the ImageLab program (Bio-rad, Hercules, CA, USA).

[2] = system: MAPK44/42 and Akt pathway; assay: Western blot of Akt and MAPK44/42 activation in hippocampus
Method: For the duration of the treatment, the mice were weighed weekly in order to assess any weight changes. After 21 days of treatment, the animals underwent a behavioral test to assess their memory and learning abilities. After the behavioral test, metabolic parameters such as blood glucose (both fasting and under the glycemic curve), body surface area (BSA) and body mass index (BMI) were assessed. Finally, animals were sacrificed using cervical dislocation. The brain and peripheral areas were isolated and collected in liquid nitrogen and subsequently stored at −80° C. until they were used for biochemical analyzes.
Total protein extracts were prepared from the frontal cortex for human autopsy samples and from the hippocampus for mouse samples, using RIPA solution (pH 7.4) containing TrisHCl (50 mM, pH 7.4), NaCl (150 mM), 1% NP-40, 0.25% sodium deoxycholate, ethylenediamine tetracetic acid (EDTA) (1 mM), and 0.1% sodium dodecyl sulfate (SDS). […] For the rest of the experiments, protein extracts were supplemented with cocktails of protease and phosphatase inhibitors (Sigma Aldrich, St Louis, MO, USA). Brain tissues were homogenized in the solution described above by sonication, and centrifuged at 14,000 rpm for 30 min at 4° C. The supernatant was used to determine total protein concentration by means of the bicinchoninic acid assay (BCA, Pierce, Rockford, IL). […]

SMILES: N[C@@H](CC(=O)N1CCn2c(nnc2C(F)(F)F)C1)Cc1cc(F)c(F)cc1F [sitagliptin, (R)-4-oxo-4-[3-(trifluoromethyl)-5,6-dihydro[1,2,4]triazole[4,3-a]pyrazin-7(8H)-yl]-1-(2,4,5-trifluorophenyl)butan-2-amine]
- cognitive performance, novel object recognition (NOR) (Ts2Cje mice): marked improvement in cognitive performance
- changes in glucose metabolism indices (GTT) [1]: no phenotypic or morphometric changes or changes in glucose metabolism indices
- expression levels of the DYRK1A protein (DYRK1A protein): significant reduction
- activation of the cerebral insulin signal, MAPK44/42 ([2]; Western blot p(Thr202/Tyr204)-MAPK44/42): restoration of the activation
- activation of the cerebral insulin signal, Akt ([2]; Western blot p(ser473)-Akt): restoration of the activation
